Values of other authors, collected in US9611229B2, “1,2,3-triazole-4-amine derivatives for the treatment of sigma receptor related diseases and disorders” (LABORATORIOS DEL DR. ESTEVE S.A., priority 2013, dated 2017).

Experiments:
sigma 1 (σ-1) site = sigma 1 (σ-1) site (Homo sapiens (Human), UniProt Q99720)
sigma 2 (σ-2) site = sigma 2 (σ-2) site (Homo sapiens (Human), UniProt Q5BJF2)

## SKF 10047
Sigma 1 (σ-1) site
  affinity for the sigma 1 (σ-1) site: nanomolar affinity
Sigma 2 (σ-2) site
  affinity for the sigma 2 (σ-2) site: micromolar affinity
